Data set [1] is described as follows: Terminal half life in healthy human at […] administered via nasogastric tube. The class given is ADME, organism-based. The note with it: in vivo.
The nature of data set [2]: Elimination rate in healthy human at […] administered via nasogastric tube. The data set is classed as ADME, organism-based. The note with it: in vivo.
Data set [3] in a line: Tmax in healthy human at 400 mg, po. The note with it: in vivo.
Data set [4] in a line: Cmax in healthy human at 400 mg, po. The settings on record: in vivo.
Data set [5] is described as follows: Cmax in healthy human at […] administered via nasogastric tube. The settings on record: in vivo, po. On the set-up: route nasogastric. The data set is classed as ADME, organism-based.
Data set [6] is described as follows: AUClast in healthy human at […], po by ITT analysis. The data set is classed as ADME, organism-based. The settings on record: plasma. On the set-up: time 0 - last, route oral.
A short description of data set [7]: AUC (0 to infinity) in healthy human at […], po by ITT analysis. The class given is ADME, organism-based. More on the design: time infinity, route oral. The note with it: plasma.
Data set [8] can be described thus: Elimination rate in healthy human at […], po. On the set-up: route oral. The note with it: in vivo. The class given is ADME, organism-based.
Data set [9] is described as follows: Apparent oral clearance in healthy human at […] administered via nasogastric tube. The class given is ADME, organism-based. More on the design: route oral. The note with it: in vivo.
Data set [10] in a line: Apparent oral clearance in healthy human at […], po. The class given is ADME, organism-based. More on the design: route oral. The settings on record: in vivo.
A short description of data set [11]: Tmax in healthy human at […] administered via nasogastric tube. The class given is ADME, organism-based. The note with it: in vivo.
Data set [12] is described as follows: AUC (0 to infinity) in healthy human at […] administered via nasogastric tube. The settings on record: plasma, po. The class given is ADME, organism-based. More on the design: route nasogastric, time infinity.
A short description of data set [13]: AUC (0 to infinity) in healthy human at […], po. The data set is classed as ADME, organism-based. More on the design: route oral, time infinity. The note with it: plasma.
Data set [14] can be described thus: Terminal half life in healthy human at […], po. The note with it: in vivo. More on the design: route oral. The data set is classed as ADME, organism-based.
The nature of data set [15]: Cmax in healthy human at […], po by ITT analysis. The data set is classed as ADME, organism-based. More on the design: route oral. The note with it: in vivo.
Data set [16] can be described thus: AUClast in healthy human at […] administered via nasogastric tube. On the set-up: route nasogastric, time 0 - last. The class given is ADME, organism-based. The settings on record: plasma, po.
Data set [17] in a line: Cmax in healthy human at […] administered via nasogastric tube by ITT analysis. The class given is ADME, organism-based. More on the design: route nasogastric. The settings on record: in vivo, po.
Data set [18] can be described thus: AUC (0 to infinity) in healthy human at […] administered via nasogastric tube by ITT analysis. The class given is ADME, organism-based. On the set-up: route nasogastric, time infinity. The note with it: plasma, po.
Data set [19] is described as follows: AUClast in healthy human at […] administered via nasogastric tube by ITT analysis. The data set is classed as ADME, organism-based. On the set-up: time 0 - last, route nasogastric. The settings on record: plasma, po.
The nature of data set [20]: AUClast in healthy human at […], po. The class given is ADME, organism-based. The settings on record: plasma. More on the design: time 0 - last, route oral.

SMILES strings stand for the structures.

As to `CC[C@@H]([C@H](C)O)n1ncn(-c2ccc(N3CCN(c4ccc(OC[C@@H]5CO[C@@](Cn6cncn6)(c6ccc(F)cc6F)C5)cc4)CC3)cc2)c1=O` [POSACONAZOLE], the results for the half-life in [1] and in data set [14] were 23.7 h and 21.6 h, respectively. For the same compound, the k el in data set [2] is 8.61e-06 s⁻¹; in data set [8], 9.72e-06 s⁻¹. The Tmax in data set [3] and in data set [11] was 4 h each time. The peak concentration (Cmax) stood at 324 ng/mL in data set [4], 266 ng/mL in data set [5], 289 ng/mL in data set [15] and 233 ng/mL in data set [17]. Further, the AUC(0-t) in data set [6] worked out at 9100 ng·h/mL; in data set [16], 8030 ng·h/mL; in data set [19], 6950 ng·h/mL; in data set [20], 10400 ng·h/mL. The AUC(0-inf) stood at 9390 ng·h/mL in data set [7], 8400 ng·h/mL in data set [12], 10900 ng·h/mL in data set [13] and 7210 ng·h/mL in data set [18]. In addition, the apparent clearance (CL/F) in [9] was 990 mL/min; in data set [10], 822 mL/min.

Usually half-life stands for how long it takes for the measured level to halve. A low value points to rapid decline. The Tmax is the time at which the peak concentration occurs. In general, Cmax refers to the peak of the concentration-time curve. As a reminder, the AUC(0-t) is the area under the concentration-time curve up to a stated or last time point. As usually defined, the AUC(0-inf) is the area under the concentration-time curve extrapolated to infinity. The low end stands for less exposure, the high end for more exposure. Broadly, the CL/F is clearance divided by bioavailability, as obtained after extravascular dosing.

Source of the values: ChEMBL document CHEMBL1649520, “Pharmacokinetics of posaconazole administered orally or by nasogastric tube in healthy volunteers” (Antimicrob Agents Chemother, 2009).
